Numbered stars: 1 amine (or outer) side, 2 acyl side, 3 side chain; on linkers, the order of the positions; unused ones are H or OH. Bridge positions count the residues as written; N and C are the ends. Square brackets hold non-standard residues; d marks the D form. Side chains are listed from the residue outwards. Peptide text beside a SMILES is read from it. * marks the point of attachment. Dip = N[C@H](C(=O)O)C(c1ccccc1)c1ccccc1; Hag = O=C([C@H](CCC=[*:3])N[*:1])[*:2]; Palmitoyl = CCCCCCCCCCCCCCCC(=O)*; tBuAla = CC(C)(C)C[C@H](N)C(=O)O; β3hF = N[C@H](CC(=O)O)Cc1ccccc1; AllylGly = C=CC[C@H](N)C(=O)O; Isovaleryl = CC(C)CC(=O)*; Ahx = NCCCCCC(=O)O
Molecular target: T1, human ferroportin (SLC40A1) (Homo sapiens, UniProt Q9NP59)
T1 sequence (Q9NP59 1-571): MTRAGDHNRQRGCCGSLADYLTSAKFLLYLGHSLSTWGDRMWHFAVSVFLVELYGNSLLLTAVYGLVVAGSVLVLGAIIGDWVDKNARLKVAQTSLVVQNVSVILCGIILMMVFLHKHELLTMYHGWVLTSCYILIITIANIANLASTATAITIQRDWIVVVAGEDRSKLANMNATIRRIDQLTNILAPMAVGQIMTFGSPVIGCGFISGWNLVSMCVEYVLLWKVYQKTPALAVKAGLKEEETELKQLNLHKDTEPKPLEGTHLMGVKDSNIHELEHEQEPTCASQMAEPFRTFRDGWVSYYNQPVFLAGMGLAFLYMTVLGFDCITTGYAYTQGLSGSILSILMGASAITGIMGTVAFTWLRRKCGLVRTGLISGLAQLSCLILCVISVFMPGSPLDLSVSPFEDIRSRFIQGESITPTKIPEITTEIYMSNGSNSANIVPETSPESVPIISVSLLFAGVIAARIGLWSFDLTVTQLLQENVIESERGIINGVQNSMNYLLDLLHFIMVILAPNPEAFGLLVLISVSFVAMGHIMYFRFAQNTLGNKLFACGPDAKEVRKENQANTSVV
Test: FPN activity assay: internalization/degradation of ferroportin-GFP in stably transfected HEK293 cells (decrease in GFP fluorescence)
Assay type: cell-based
Conditions: compound incubated at least 18 hours
Procedure: Peptide analogues were tested in vitro for induction of internalization of the human ferroportin protein. Following internalization, the ferroporin protein is degraded. The assay used (FPN activity assay) measures a decrease in fluorescence of the receptor. The cDNA encoding the human ferroportin (SLC40A1) was cloned from a cDNA clone from Origene (NM_014585). The DNA encoding the ferroportin was amplified by PCR using primers also encoding terminal restriction sites for subcloning, but without the termination codon. The ferroportin receptor was subcloned into a mammalian GFP expression vector containing a neomycin (G418) resistance marker in such that the reading frame of the ferroportin was fused in frame with the GFP protein. The fidelity of the DNA encoding the protein was confirmed by DNA sequencing. HEK293 cells were used for transfection of the ferroportin-GFP receptor expression plasmid. The cells were grown according to standard protocol in growth medium and transfected with the plasmids using Lipofectamine (manufacturer's protocol, Invitrogen). The cells stably expressing ferroportin-GFP were selected using G418 in the growth medium (in that only cells that have taken up and incorporated the cDNA expression plasmid survive) and sorted several times on a Cytomation MoFloTM cell sorter to obtain the GFP-positive cells (488 nm/530 nm). The cells were propagated and frozen in aliquots. […] Compound was added to desired final concentration for at least 18 hours in the incubator. […] Compound was added to desired final concentration for at least 18 hours but no more than 24 hours in the incubator. […] The “RI” in RI-Mini-Hepcidin refers to Retro Inverse. A retro inverse peptide is a peptide with a reversed sequence in all D amino acids. An example is that […] becomes […]. The EC50 of these reference compounds for ferroportin internalization/degradation was determined according to the FPN activity assay described above. These peptides served as control standards.

`CCCCCCCCCCCCCCCC(=O)NCCCCCC(=O)NCCCC[C@@H]1NC(=O)[C@H](C)NC(=O)[C@@H]2CCCN2C(=O)[C@H](C(c2ccccc2)c2ccccc2)NC(=O)[C@H](Cc2c[nH]cn2)NC(=O)[C@H]([C@@H](C)O)NC(=O)[C@@H](NC(=O)CC(C)C)CCC=CCC[C@@H](C(=O)N[C@H](CC(=O)N[C@H](CCCCN)C(N)=O)Cc2ccccc2)NC1=O` (single isomer, unassigned) [Compd 39] showed an IC50 of 100 to 500 nM.

In the case of `CCCCCCCCCCCCCCCC(=O)NCCCCCC(=O)NCCCC[C@H](NC(=O)C[C@H](Cc1ccccc1)NC(=O)[C@@H]1CCC=CCC[C@H](NC(=O)CC(C)C)C(=O)N[C@@H](CC(C)(C)C)C(=O)N[C@@H](Cc2c[nH]cn2)C(=O)N[C@@H](C(c2ccccc2)c2ccccc2)C(=O)N2CCC[C@H]2C(=O)N[C@@H](C)C(=O)N[C@@H]([C@@H](C)CC)C(=O)N1)C(=O)N[C@H](CCCCN)C(N)=O` [Compd 58] (Isovaleryl-[Hag][tBuAla]H[Dip]PAI[Hag][β3hF]K([Ahx-Palmitoyl])[dK]-NH2; staple 1-8), the IC50 is reported as > 500 nM.

In the case of `CCCCCCCCCCCCCCCC(=O)NCCCCCC(=O)NCCCC[C@H](NC(=O)C[C@H](Cc1ccccc1)NC(=O)[C@@H](CCCCN)NC(=O)[C@@H](NC(=O)[C@@H]1CCC=CCC[C@H](NC(=O)[C@H](Cc2c[nH]cn2)NC(=O)[C@@H](NC(=O)[C@H](CCC(=O)O)NC(=O)CC(C)C)[C@@H](C)O)C(=O)N2CCC[C@H]2C(=O)N1)[C@@H](C)CC)C(=O)N[C@H](CCCCN)C(N)=O` [Compd 5] (Isovaleryl-ETH[Hag]P[Hag]I[dK][β3hF]K([Ahx-Palmitoyl])[dK]-NH2; staple 4-6), the IC50 is reported as > 500 nM.

Work on `CCCCCCCCCCCCCCCC(=O)NCCCCCC(=O)NCCCC[C@H](NC(=O)C[C@H](Cc1ccccc1)NC(=O)[C@@H]1CCC=CCC[C@H](NC(=O)CC(C)C)C(=O)N[C@@H]([C@@H](C)O)C(=O)N[C@@H](Cc2c[nH]cn2)C(=O)N[C@@H](C(c2ccccc2)c2ccccc2)C(=O)N[C@@H](C)C(=O)N[C@@H](C)C(=O)N[C@@H]([C@@H](C)CC)C(=O)N1)C(=O)N[C@H](CCCCN)C(N)=O` [Compd 44] (Isovaleryl-[Hag]TH[Dip]AAI[Hag][β3hF]K([Ahx-Palmitoyl])[dK]-NH2; staple 1-8) yielded an IC50 of 10 to 100 nM.

With `CCCCCCCCCCCCCCCC(=O)NCCCCCC(=O)NCCCC[C@H](NC(=O)C[C@H](Cc1ccccc1)NC(=O)[C@@H]1CCC=CCC[C@H](NC(=O)CC(C)C)C(=O)N[C@@H]([C@@H](C)O)C(=O)N[C@@H](Cc2c[nH]cn2)C(=O)N[C@@H](C)C(=O)N2CCC[C@H]2C(=O)N[C@@H](C)C(=O)N[C@@H]([C@@H](C)CC)C(=O)N1)C(=O)N[C@H](CCCCN)C(N)=O` [Compd 43] (Isovaleryl-[Hag]THAPAI[Hag][β3hF]K([Ahx-Palmitoyl])[dK]-NH2; staple 1-8) the IC50 was > 500 nM.

`CCCCCCCCCCCCCCCC(=O)NCCCCCC(=O)NCCCC[C@H](NC(=O)C[C@H](Cc1ccccc1)NC(=O)[C@@H]1CCC=CCC[C@H](NC(=O)CC(C)C)C(=O)N[C@@H]([C@@H](C)O)C(=O)N[C@@H](Cc2c[nH]cn2)C(=O)N[C@@H](CC(C)(C)C)C(=O)N2CCC[C@H]2C(=O)N[C@@H](C)C(=O)N[C@@H]([C@@H](C)CC)C(=O)N1)C(=O)N[C@H](CCCCN)C(N)=O` [Compd 60] gave an IC50 of 10 to 100 nM.

`CCCCCCCCCCCCCCCC(=O)NCCCCCC(=O)NCCCC[C@@H]1NC(=O)[C@@H]2CCCN2C(=O)[C@H](C(c2ccccc2)c2ccccc2)NC(=O)[C@H](Cc2c[nH]cn2)NC(=O)[C@H]([C@@H](C)O)NC(=O)[C@@H](NC(=O)CC(C)C)CCC=CCC[C@@H](C(=O)N[C@H](CC(=O)N[C@H](CCCCN)C(N)=O)Cc2ccccc2)NC1=O` (single isomer, unassigned) [Compd 40] was tested, and the IC50 was > 500 nM.

`CCCCCCCCCCCCCCCC(=O)NCCCCCC(=O)NCCCC[C@H](NC(=O)C[C@H](Cc1ccccc1)NC(=O)[C@@H]1CCC=CCC[C@H](NC(=O)CC(C)C)C(=O)N[C@@H]([C@@H](C)O)C(=O)N[C@@H](CC(C)(C)C)C(=O)N[C@@H](C(c2ccccc2)c2ccccc2)C(=O)N2CCC[C@H]2C(=O)N[C@@H](C)C(=O)N[C@@H]([C@@H](C)CC)C(=O)N1)C(=O)N[C@H](CCCCN)C(N)=O` [Compd 59] (Isovaleryl-[Hag]T[tBuAla][Dip]PAI[Hag][β3hF]K([Ahx-Palmitoyl])[dK]-NH2; staple 1-8) was tested, and the IC50 was > 500 nM.

With `CCCCCCCCCCCCCCCC(=O)NCCCCCC(=O)NCCCC[C@H](NC(=O)C[C@H](Cc1ccccc1)NC(=O)[C@@H]1CCC=CCC[C@H](NC(=O)CC(C)C)C(=O)N[C@@H]([C@@H](C)O)C(=O)N[C@@H](Cc2c[nH]cn2)C(=O)N[C@@H](C(c2ccccc2)c2ccccc2)C(=O)N2CCC[C@H]2C(=O)N1)C(N)=O` (single isomer, unassigned) [Compd 86] the IC50 was > 500 nM.

`CCCCCCCCCCCCCCCC(=O)NCCCCCC(=O)NCCCC[C@@H]1NC(=O)[C@@H]2CCCN2C(=O)[C@H](C(c2ccccc2)c2ccccc2)NC(=O)[C@H](Cc2c[nH]cn2)NC(=O)[C@H]([C@@H](C)O)NC(=O)[C@@H](NC(=O)CC(C)C)CCC=CCC[C@@H](C(=O)N[C@H](CC(=O)N[C@H](CCCCN)C(N)=O)Cc2ccccc2)NC1=O` (single isomer, unassigned) [Compd 38] was tested, and the IC50 was > 500 nM.

For `CCCCCCCCCCCCCCCC(=O)NCCCCCC(=O)NCCCC[C@H](NC(=O)C[C@H](Cc1ccccc1)NC(=O)[C@@H](CCCCN)NC(=O)[C@@H](NC(=O)[C@@H]1CCCCC[C@H](NC(=O)[C@H](Cc2c[nH]cn2)NC(=O)[C@@H](NC(=O)[C@H](CCC(=O)O)NC(=O)CC(C)C)[C@@H](C)O)C(=O)N2CCC[C@H]2C(=O)N1)[C@@H](C)CC)C(=O)N[C@H](CCCCN)C(N)=O` [Compd 7], the IC50 was > 500 nM.

In the case of `CCCCCCCCCCCCCCCC(=O)NCCCCCC(=O)NCCCC[C@@H]1NC(=O)C[C@H](Cc2ccccc2)NC(=O)[C@@H](CCCCN)NC(=O)[C@H]([C@@H](C)CC)NC(=O)[C@H](C)NC(=O)[C@@H]2CCCN2C(=O)[C@H](C(c2ccccc2)c2ccccc2)NC(=O)[C@H](Cc2c[nH]cn2)NC(=O)[C@H]([C@@H](C)O)NC(=O)[C@@H](NC(=O)CC(C)C)CCC=CCC[C@@H](C(N)=O)NC1=O` [Compd 84] (Isovaleryl-[Hag]TH[Dip]PAI[dK][β3hF]K([Ahx-Palmitoyl])[Hag]-NH2; staple 1-11), the IC50 is reported as 100 to 500 nM.

In the case of `CCCCCCCCCCCCCCCC(=O)NCCCCCC(=O)NCCCC[C@H](NC(=O)C[C@H](Cc1ccccc1)NC(=O)[C@@H](CCCCN)NC(=O)[C@@H](NC(=O)[C@@H]1CCC=CC[C@H](NC(=O)[C@H](Cc2c[nH]cn2)NC(=O)[C@@H](NC(=O)[C@H](CCC(=O)O)NC(=O)CC(C)C)[C@@H](C)O)C(=O)N2CCC[C@H]2C(=O)N1)[C@@H](C)CC)C(=O)N[C@H](CCCCN)C(N)=O` [Compd 4] (Isovaleryl-ETH[AllylGly]P[Hag]I[dK][β3hF]K([Ahx-Palmitoyl])[dK]-NH2; staple 4-6), the IC50 is reported as > 500 nM.

With `CCCCCCCCCCCCCCCC(=O)NCCCCCC(=O)NCCCC[C@H](NC(=O)[C@@H]1CCC=CCC[C@H](NC(=O)CC(C)C)C(=O)N[C@@H]([C@@H](C)O)C(=O)N[C@@H](Cc2c[nH]cn2)C(=O)N[C@@H](C(c2ccccc2)c2ccccc2)C(=O)N2CCC[C@H]2C(=O)N1)C(N)=O` [Compd 21] (Isovaleryl-[Hag]TH[Dip]P[Hag]K([Ahx-Palmitoyl])-NH2; staple 1-6) the IC50 was > 500 nM.
